Laboratory results as given in patent publication EP3046573B1, “AMYLIN ANALOGUES” (Zealand Pharma A/S, priority 2013, dated 2015).
Read-outs that look alike come from different tables or passages of the source. Numbered stars: 1 amine (or outer) side, 2 acyl side, 3 side chain; on linkers, the order of the positions; unused ones are H or OH. Bridge positions count the residues as written; N and C are the ends. Square brackets hold non-standard residues; d marks the D form. Peptide text beside a SMILES is read from it. * marks the point of attachment. C20 diacid = O=C(O)CCCCCCCCCCCCCCCCCCC(=O)*; C16 diacid = O=C(O)CCCCCCCCCCCCCCC(=O)*; γGlu = O=C(O)[C@H](CCC(=O)[*:2])N[*:1]; Stearoyl = CCCCCCCCCCCCCCCCCC(=O)*; NMeI = CC[C@H](C)[C@H](NC)C(=O)O; Sar = CNCC(=O)O

What was measured:
[1] = biological target: T1, human calcitonin receptor (hCTR2) (Homo sapiens, UniProt P30988); test: hCTR2 assay: induction of cAMP (AlphaScreen cAMP Assay kit) in COS7 cells expressing hCTR2; assay type: cell-based
T1 construct: expressed in transfected cells
T1 sequence (P30988 25-474): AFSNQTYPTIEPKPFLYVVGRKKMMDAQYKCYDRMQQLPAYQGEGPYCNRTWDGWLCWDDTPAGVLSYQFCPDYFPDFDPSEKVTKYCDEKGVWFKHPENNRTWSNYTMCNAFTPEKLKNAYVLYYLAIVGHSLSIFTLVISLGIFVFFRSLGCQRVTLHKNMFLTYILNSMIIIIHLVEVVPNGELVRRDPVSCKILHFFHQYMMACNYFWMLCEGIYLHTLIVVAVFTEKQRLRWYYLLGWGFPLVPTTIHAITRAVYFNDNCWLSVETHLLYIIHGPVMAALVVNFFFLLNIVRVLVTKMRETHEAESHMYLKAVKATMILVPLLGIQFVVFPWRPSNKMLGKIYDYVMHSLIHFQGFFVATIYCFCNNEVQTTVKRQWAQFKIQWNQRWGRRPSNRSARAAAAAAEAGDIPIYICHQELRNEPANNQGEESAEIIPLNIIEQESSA
Summary of the method: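 Stable hCTR2 clone in RAMP-naive COS7 cells; peptides titrated in Tyrode buffer (pH 7.4) with 100 µM IBMX, 0.1% casein, 15 min at 37° C. cAMP read by AlphaScreen after lysis; EC50 and efficacy relative to pramlintide from 4PL fit.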

[2] = Solubility assessment (turbidity absorbance at 325 nm); assay type: physicochemical; conditions: stock 2 mg/ml diluted 1:1, ambient temperature (typically 25°C), n=1; for Solubility, Acetate buffer pH 4: 100 mM acetate buffer pH 4.0; for Solubility, Acetate buffer pH 5: 100 mM acetate buffer pH 5.0; for Solubility, Histidine buffer pH 6: 100 mM histidine buffer pH 6.0; for Solubility, Histidine buffer pH 7: 100 mM histidine buffer pH 7.0; for Solubility, Phosphate buffer pH 6: 100 mM phosphate buffer pH 6.0; for Solubility, Phosphate buffer pH 7: 100 mM phosphate buffer pH 7.0; for Solubility, Phosphate buffer pH 7.5: 100 mM phosphate buffer pH7.5
Summary of the method: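 Stock 2 mg/ml peptide, H2O/HCl pH 2.5; 1:1 into 100 mM buffers: acetate pH 4.0/5.0, His pH 6.0/7.0, phosphate pH 6.0/7.0/7.5. A280 + A325, ~25°C, n=1. Soluble ≥ 1 mg/ml if A325 ≤ 0.02.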

Row | SMILES | EC50 [1] | Solubility, Acetate buffer pH 4 [2] | Solubility, Acetate buffer pH 5 [2] | Solubility, Histidine buffer pH 6 [2] | Solubility, Histidine buffer pH 7 [2] | Solubility, Phosphate buffer pH 6 [2] | Solubility, Phosphate buffer pH 7 [2] | Solubility, Phosphate buffer pH 7.5 [2] | EC50 ([1]; cAMP induction in COS7 cells expressing hCTR2, average of a minimum of 3 determinations, read-out: hCTR2 EC50)
1 | CCCCCCCCCCCCCCCCCC(=O)N[C@@H](CCC(=O)N[C@@H](CCCNC(=N)N)C(=O)N[C@H]1CSSC[C@@H](C(=O)N[C@@H](C)C(=O)N[C@H](C(=O)N[C@@H](CCC(N)=O)C(=O)N[C@@H](CCCNC(=N)N)C(=O)N[C@@H](CC(C)C)C(=O)N[C@@H](C)C(=O)N[C@@H](CCC(=O)O)C(=O)N[C@@H](Cc2ccccc2)C(=O)N[C@@H](CC(C)C)C(=O)N[C@@H](Cc2c[nH]cn2)C(=O)N[C@@H](CCCNC(=N)N)C(=O)N[C@@H](CO)C(=O)N[C@@H](CO)C(=O)N[C@@H](CC(N)=O)C(=O)N[C@@H](CC(N)=O)C(=O)N[C@@H](Cc2ccccc2)C(=O)N(C)CC(=O)N[C@@H](C)C(=O)N(C)[C@H](C(=O)N[C@@H](CC(C)C)C(=O)N[C@@H](CO)C(=O)N[C@@H](CO)C(=O)N[C@H](C(=O)N[C@@H](CC(N)=O)C(=O)N[C@H](C(=O)NCC(=O)N[C@@H](CO)C(=O)N[C@@H](CC(N)=O)C(=O)N[C@H](C(=O)N2CCC[C@H]2C(N)=O)[C@@H](C)O)C(C)C)[C@@H](C)O)[C@@H](C)CC)[C@@H](C)O)NC(=O)[C@H]([C@@H](C)O)NC(=O)[C@H](C)NC(=O)[C@H]([C@@H](C)O)NC(=O)[C@H](CC(N)=O)NC1=O)C(=O)O [Compound 93, [Octadecanoyl]-isoGlu-RC()NTATC()ATQRLAEFLHRSSNNF-Gly(Me)-A-Ile(Me)-LSSTNVGSNTP-NH2] ({Stearoyl-γGlu}-RCNTATCATQRLAEFLHRSSNNF[Sar]A[NMeI]LSSTNVGSNTP-NH2; disulfide 2-7) | 0.064 nM | SS (SS indicates solubility ≥ 1mg/ml) | SS (SS indicates solubility ≥ 1mg/ml) | SS (SS indicates solubility ≥ 1mg/ml) | SS (SS indicates solubility ≥ 1mg/ml) | SS (SS indicates solubility ≥ 1mg/ml) | SS (SS indicates solubility ≥ 1mg/ml) | SS (SS indicates solubility ≥ 1mg/ml) | 
2 | CC[C@H](C)[C@@H](C(=O)N[C@@H](CC(C)C)C(=O)N[C@@H](CO)C(=O)N[C@@H](CO)C(=O)N[C@H](C(=O)N[C@@H](CC(N)=O)C(=O)N[C@H](C(=O)NCC(=O)N[C@@H](CO)C(=O)N[C@@H](CC(N)=O)C(=O)N[C@H](C(=O)N1CCC[C@H]1C(N)=O)[C@@H](C)O)C(C)C)[C@@H](C)O)N(C)C(=O)[C@H](C)NC(=O)CN(C)C(=O)[C@H](Cc1ccccc1)NC(=O)[C@H](CC(N)=O)NC(=O)[C@H](CC(N)=O)NC(=O)[C@H](CO)NC(=O)[C@H](CO)NC(=O)[C@H](CCCNC(=N)N)NC(=O)[C@H](Cc1c[nH]cn1)NC(=O)[C@H](CC(C)C)NC(=O)[C@H](Cc1ccccc1)NC(=O)[C@H](CCC(=O)O)NC(=O)[C@H](C)NC(=O)[C@H](CC(C)C)NC(=O)[C@H](CCCNC(=N)N)NC(=O)[C@H](CCC(N)=O)NC(=O)[C@@H](NC(=O)[C@H](C)NC(=O)[C@@H]1CSSC[C@H](NC(=O)[C@H](CCCNC(=N)N)NC(=O)CC[C@H](NC(=O)CCCCCCCCCCCCCCC(=O)O)C(=O)O)C(=O)N[C@@H](CC(N)=O)C(=O)N[C@@H]([C@@H](C)O)C(=O)N[C@@H](C)C(=O)N[C@@H]([C@@H](C)O)C(=O)N1)[C@@H](C)O [Compound 90, [15CD]-isoGlu-RC()NTATC()ATQRLAEFLHRSSNNF-Gly(Me)-A-Ile(Me)-LSSTNVGSNTP-NH2] ({C16 diacid-γGlu}-RCNTATCATQRLAEFLHRSSNNF[Sar]A[NMeI]LSSTNVGSNTP-NH2; disulfide 2-7) | 0.066 nM | SS (SS indicates solubility ≥ 1mg/ml) | SS (SS indicates solubility ≥ 1mg/ml) | SS (SS indicates solubility ≥ 1mg/ml) | SS (SS indicates solubility ≥ 1mg/ml) | SS (SS indicates solubility ≥ 1mg/ml) | SS (SS indicates solubility ≥ 1mg/ml) | SS (SS indicates solubility ≥ 1mg/ml) | 
3 | CC[C@H](C)[C@@H](C(=O)N[C@@H](CC(C)C)C(=O)N[C@@H](CO)C(=O)N[C@@H](CO)C(=O)N[C@H](C(=O)N[C@@H](CC(N)=O)C(=O)N[C@H](C(=O)NCC(=O)N[C@@H](CO)C(=O)N[C@@H](CC(N)=O)C(=O)N[C@H](C(=O)N1CCC[C@H]1C(N)=O)[C@@H](C)O)C(C)C)[C@@H](C)O)N(C)C(=O)[C@H](C)NC(=O)CN(C)C(=O)[C@H](Cc1ccccc1)NC(=O)[C@H](CC(N)=O)NC(=O)[C@H](CC(N)=O)NC(=O)[C@H](CO)NC(=O)[C@H](CO)NC(=O)[C@H](Cc1c[nH]cn1)NC(=O)[C@H](Cc1c[nH]cn1)NC(=O)[C@H](CC(C)C)NC(=O)[C@H](Cc1ccccc1)NC(=O)[C@H](CCC(=O)O)NC(=O)[C@H](C)NC(=O)[C@H](CC(C)C)NC(=O)[C@H](CCCNC(=N)N)NC(=O)[C@H](CCC(N)=O)NC(=O)[C@@H](NC(=O)[C@H](C)NC(=O)[C@@H]1CSSC[C@H](NC(=O)[C@H](C)NC(=O)CC[C@H](NC(=O)CCCCCCCCCCCCCCCCCCC(=O)O)C(=O)O)C(=O)N[C@@H](CC(N)=O)C(=O)N[C@@H]([C@@H](C)O)C(=O)N[C@@H](C)C(=O)N[C@@H]([C@@H](C)O)C(=O)N1)[C@@H](C)O [Compound 5, [19CD]-isoGlu-AC()NTATC()ATQRLAEFLHHSSNNF-Gly(Me)-A-Ile(Me)-LSSTNVGSNTP-NH2] ({C20 diacid-γGlu}-ACNTATCATQRLAEFLHHSSNNF[Sar]A[NMeI]LSSTNVGSNTP-NH2; disulfide 2-7) | 0.75 nM | SS (SS indicates solubility ≥ 1mg/ml) | SS (SS indicates solubility ≥ 1mg/ml) | SS (SS indicates solubility ≥ 1mg/ml) | SS (SS indicates solubility ≥ 1mg/ml) | SS (SS indicates solubility ≥ 1mg/ml) | SS (SS indicates solubility ≥ 1mg/ml) | SS (SS indicates solubility ≥ 1mg/ml) | 
4 | CC[C@H](C)[C@@H](C(=O)N[C@@H](CC(C)C)C(=O)N[C@@H](CO)C(=O)N[C@@H](CO)C(=O)N[C@H](C(=O)N[C@@H](CC(N)=O)C(=O)N[C@H](C(=O)NCC(=O)N[C@@H](CO)C(=O)N[C@@H](CC(N)=O)C(=O)N[C@H](C(=O)N1CCC[C@H]1C(N)=O)[C@@H](C)O)C(C)C)[C@@H](C)O)N(C)C(=O)CN(C)C(=O)[C@H](Cc1ccccc1)NC(=O)[C@H](CC(N)=O)NC(=O)[C@H](CC(N)=O)NC(=O)[C@H](CO)NC(=O)[C@H](CO)NC(=O)[C@H](CC(C)C)NC(=O)[C@H](Cc1ccccc1)NC(=O)[C@H](CCC(=O)O)NC(=O)[C@H](C)NC(=O)[C@H](CC(C)C)NC(=O)[C@H](CCCNC(=N)N)NC(=O)[C@H](CCC(N)=O)NC(=O)[C@@H](NC(=O)[C@H](C)NC(=O)[C@@H]1CSSC[C@H](NC(=O)[C@H](CCCNC(=N)N)NC(=O)CC[C@H](NC(=O)CCCCCCCCCCCCCCCCCCC(=O)O)C(=O)O)C(=O)N[C@@H](CC(N)=O)C(=O)N[C@@H]([C@@H](C)O)C(=O)N[C@@H](C)C(=O)N[C@@H]([C@@H](C)O)C(=O)N1)[C@@H](C)O [Compound 42, [19CD]-isoGlu-RC()NTATC()ATQRLAEFLSSNNF-Gly(Me)-Ile(Me)-LSSTNVGSNTP-NH2] ({C20 diacid-γGlu}-RCNTATCATQRLAEFLSSNNF[Sar][NMeI]LSSTNVGSNTP-NH2; disulfide 2-7) |  | SS (SS indicates solubility ≥ 1mg/ml) | SS (SS indicates solubility ≥ 1mg/ml) | SS (SS indicates solubility ≥ 1mg/ml) | SS (SS indicates solubility ≥ 1mg/ml) | SS (SS indicates solubility ≥ 1mg/ml) | SS (SS indicates solubility ≥ 1mg/ml) | SS (SS indicates solubility ≥ 1mg/ml) | 0.12 nM
